From PubChem BioAssay AID1259407 (Chemical Carcinogenesis Research Information System (CCRIS), 2018)
The source made the active and inactive calls. How the calls were made is not given here.

Tested on: CCRIS mutagenicity, Ames/micronucleus/aberration tests
Assay: CCRIS mutagenicity studies

O=[N+]([O-])c1ccc2c(c1)Cc1ccccc1-2
mutagenic call (End Point: IN VITRO CHROMOSOMAL ABERRATIONS, Test System: CHINESE HAMSTER LUNG (CHL) CELLS, Metabolic Activation: NONE): inactive; negative | mutagenic call (End Point: IN VITRO CHROMOSOMAL ABERRATIONS, Test System: CHINESE HAMSTER LUNG (CHL) CELLS, Metabolic Activation: RAT, LIVER, S-9, KC-400): active; positive | mutagenic call (End Point: IN VITRO MICRONUCLEUS, Test System: CHL/IU CELLS, Metabolic Activation: NONE): active; positive | mutagenic call (Test System: AMES SALMONELLA TYPHIMURIUM, Strain/Indicator: TA98 (1,8-DNP6), Metabolic Activation: NONE, Method: PREINCUBATION): active; positive | mutagenic call (Test System: AMES SALMONELLA TYPHIMURIUM, Strain/Indicator: TA98(1,8-DNP6), Metabolic Activation: NONE, Method: STANDARD PLATE): active; positive | mutagenic call (Test System: AMES SALMONELLA TYPHIMURIUM, Strain/Indicator: TA98 (NR), Metabolic Activation: NONE, Method: PREINCUBATION): active; positive | mutagenic call (Test System: AMES SALMONELLA TYPHIMURIUM, Strain/Indicator: TA98(NR), Metabolic Activation: NONE, Method: STANDARD PLATE): active; positive | mutagenic call (Test System: AMES SALMONELLA TYPHIMURIUM, Strain/Indicator: TA98 (NR), Metabolic Activation: RAT LIVER S-9 (10%), Method: PREINCUBATION): active; positive | mutagenic call (Test System: AMES SALMONELLA TYPHIMURIUM, Strain/Indicator: TA98 (NR), Metabolic Activation: RAT LIVER S-9, 3-METHYLCHOLANTHRENE (10%), Method: PREINCUBATION): active; positive | mutagenic call (Test System: AMES SALMONELLA TYPHIMURIUM, Strain/Indicator: TA98 (NR), Metabolic Activation: RAT LIVER S-9, BETA-NAPHTHAFLAVONE (10%), Method: PREINCUBATION): active; positive | mutagenic call (Test System: AMES SALMONELLA TYPHIMURIUM, Strain/Indicator: TA98(NR), Metabolic Activation: RAT LIVER S-9, PHENOBARBITAL (10%), Method: PREINCUBATION): active; positive | mutagenic call (Test System: AMES SALMONELLA TYPHIMURIUM, Strain/Indicator: TA98 (NR), Metabolic Activation: RAT LIVER S-9 PCB, 10%, Method: PREINCUBATION): active; positive | mutagenic call (Test System: AMES SALMONELLA TYPHIMURIUM, Strain/Indicator: TA98, Metabolic Activation: NONE, Method: SPIRAL ASSAY): active; positive | mutagenic call (Test System: AMES SALMONELLA TYPHIMURIUM, Strain/Indicator: TA98, Metabolic Activation: RAT, LIVER, S-9, AROCLOR 1254, Method: SPIRAL ASSAY): active; positive | mutagenic call (Test System: AMES SALMONELLA TYPHIMURIUM, Strain/Indicator: TA98, Metabolic Activation: RAT, LIVER, S-9, AROCLOR 1254, Method: STANDARD PLATE): active; positive | mutagenic call (Test System: AMES SALMONELLA TYPHIMURIUM, Strain/Indicator: TA98, Metabolic Activation: RAT, LIVER, S-9, PCB (10%), Method: PREINCUBATION): active; positive | mutagenic call (Test System: AMES SALMONELLA TYPHIMURIUM, Strain/Indicator: TA98, Metabolic Activation: S-9, Method: PREINCUBATION): active; positive | mutagenic call (Test System: AMES SALMONELLA TYPHIMURIUM, Strain/Indicator: TA98, Metabolic Activation: S-9, Method: STANDARD PLATE): active; positive | mutagenic call (Test System: AMES SALMONELLA TYPHIMURIUM, Strain/Indicator: TA100(NR), Metabolic Activation: NONE, Method: STANDARD PLATE): inactive; negative | mutagenic call (Test System: AMES SALMONELLA TYPHIMURIUM, Strain/Indicator: TA100(TN5-1,8-DNP1012), Metabolic Activation: NONE, Method: STANDARD PLATE): inactive; negative | mutagenic call (Test System: AMES SALMONELLA TYPHIMURIUM, Strain/Indicator: TA100, Metabolic Activation: NONE, Method: PREINCUBATION): active; positive | mutagenic call (Test System: AMES SALMONELLA TYPHIMURIUM, Strain/Indicator: TA100, Metabolic Activation: NONE, Method: SPIRAL ASSAY): active; positive | mutagenic call (Test System: AMES SALMONELLA TYPHIMURIUM, Strain/Indicator: TA100, Metabolic Activation: RAT, LIVER, S-9, AROCLOR 1254, Method: SPIRAL ASSAY): active; positive | mutagenic call (Test System: AMES SALMONELLA TYPHIMURIUM, Strain/Indicator: TA100, Metabolic Activation: RAT, LIVER, S-9, AROCLOR 1254, Method: STANDARD PLATE): active; positive | mutagenic call (Test System: AMES SALMONELLA TYPHIMURIUM, Strain/Indicator: TA100, Metabolic Activation: S-9, Method: STANDARD PLATE): active; positive | mutagenic call (Test System: AMES SALMONELLA TYPHIMURIUM, Strain/Indicator: TA102, Metabolic Activation: NONE, Method: PREINCUBATION): active; positive | mutagenic call (Test System: AMES SALMONELLA TYPHIMURIUM, Strain/Indicator: TA1535, Metabolic Activation: NONE, Method: PREINCUBATION): active; positive | mutagenic call (Test System: AMES SALMONELLA TYPHIMURIUM, Strain/Indicator: TA1535, Metabolic Activation: NONE, Method: SPIRAL ASSAY): inactive; negative | mutagenic call (Test System: AMES SALMONELLA TYPHIMURIUM, Strain/Indicator: TA1535, Metabolic Activation: NONE, Method: STANDARD PLATE): inactive; negative | mutagenic call (Test System: AMES SALMONELLA TYPHIMURIUM, Strain/Indicator: TA1535, Metabolic Activation: RAT, LIVER, S-9, AROCLOR 1254, Method: SPIRAL ASSAY): inactive; negative | mutagenic call (Test System: AMES SALMONELLA TYPHIMURIUM, Strain/Indicator: TA1535, Metabolic Activation: RAT, LIVER, S-9, AROCLOR 1254, Method: STANDARD PLATE): inactive; negative | mutagenic call (Test System: AMES SALMONELLA TYPHIMURIUM, Strain/Indicator: TA1537, Metabolic Activation: NONE, Method: SPIRAL ASSAY): active; positive | mutagenic call (Test System: AMES SALMONELLA TYPHIMURIUM, Strain/Indicator: TA1537, Metabolic Activation: NONE, Method: STANDARD PLATE): active; positive | mutagenic call (Test System: AMES SALMONELLA TYPHIMURIUM, Strain/Indicator: TA1537, Metabolic Activation: RAT, LIVER, S-9, AROCLOR 1254, Method: SPIRAL ASSAY): active; positive | mutagenic call (Test System: AMES SALMONELLA TYPHIMURIUM, Strain/Indicator: TA1537, Metabolic Activation: RAT, LIVER, S-9, AROCLOR 1254, Method: STANDARD PLATE): active; positive | mutagenic call (Test System: AMES SALMONELLA TYPHIMURIUM, Strain/Indicator: TA1538, Metabolic Activation: NONE, Method: STANDARD PLATE): active; positive | mutagenic call (Test System: AMES SALMONELLA TYPHIMURIUM, Strain/Indicator: TA1975, Metabolic Activation: NONE, Method: PREINCUBATION): active; positive | mutagenic call (Test System: AMES SALMONELLA TYPHIMURIUM, Strain/Indicator: YG1020, Metabolic Activation: NONE, Method: PREINCUBATION): active; positive | mutagenic call (Test System: AMES SALMONELLA TYPHIMURIUM, Strain/Indicator: YG1024, Metabolic Activation: NONE, Method: PREINCUBATION): active; positive | mutagenic call (Test System: AMES SALMONELLA TYPHIMURIUM, Strain/Indicator: YG1025, Metabolic Activation: NONE, Method: PREINCUBATION): active; positive | mutagenic call (Test System: AMES SALMONELLA TYPHIMURIUM, Strain/Indicator: YG1029, Metabolic Activation: NONE, Method: PREINCUBATION): active; positive | mutagenic call (Test System: AMES SALMONELLA TYPHIMURIUM, Strain/Indicator: YG3001, Metabolic Activation: NONE, Method: PREINCUBATION): active; positive | mutagenic call (Test System: AMES SALMONELLA TYPHIMURIUM, Strain/Indicator: YG3002, Metabolic Activation: NONE, Method: PREINCUBATION): active; positive | mutagenic call (Test System: AMES SALMONELLA TYPHIMURIUM, Strain/Indicator: YG3003, Metabolic Activation: NONE, Method: PREINCUBATION): active; positive | mutagenic call (Test System: AMES SALMONELLA TYPHIMURIUM, Strain/Indicator: YG7112, Metabolic Activation: NONE, Method: PREINCUBATION): active; positive | mutagenic call (Test System: AMES SALMONELLA TYPHIMURIUM, Strain/Indicator: YG7113, Metabolic Activation: NONE, Method: PREINCUBATION): active; positive | mutagenic call (Test System: CHINESE HAMSTER OVARY, Strain/Indicator: CHO-K1-BH4 (HGPRT), Metabolic Activation: RAT, LIVER, S-9, AROCLOR, Method: SUSPENSION/PLATE): active; positive | mutagenic call (Test System: E. COLI, Strain/Indicator: WP2 UVRA, Metabolic Activation: HAMSTER, LIVER, S-9, AROCLOR 1254, Method: STANDARD PLATE): inactive; negative | mutagenic call (Test System: E. COLI, Strain/Indicator: WP2 UVRA, Metabolic Activation: HAMSTER, LIVER, S-9, Method: STANDARD PLATE): inactive; negative | mutagenic call (Test System: E. COLI, Strain/Indicator: WP2 UVRA, Metabolic Activation: MOUSE, LIVER, S-9, AROCLOR 1254, Method: STANDARD PLATE): inactive; negative | mutagenic call (Test System: E. COLI, Strain/Indicator: WP2 UVRA, Metabolic Activation: MOUSE, LIVER, S-9, Method: STANDARD PLATE): inactive; negative | mutagenic call (Test System: E. COLI, Strain/Indicator: WP2 UVRA, Metabolic Activation: NONE, Method: STANDARD PLATE): inactive; negative | mutagenic call (Test System: E. COLI, Strain/Indicator: WP2 UVRA, Metabolic Activation: RAT, LIVER, S-9, AROCLOR 1254, Method: STANDARD PLATE): inactive; negative | mutagenic call (Test System: E. COLI, Strain/Indicator: WP2 UVRA, Metabolic Activation: RAT, LIVER, S-9, Method: STANDARD PLATE): inactive; negative | mutagenic call (Test System: MOUSE LYMPHOMA, Strain/Indicator: L5178Y (TK+/TK-), Metabolic Activation: NONE, Method: SUSPENSION/PLATE): active; positive | mutagenic call (Test System: UDS RAT HEPATOCYTES, Strain/Indicator: THY INCORP, Metabolic Activation: NONE, Method: AUTORADIOGRAPHY (SERUM-FREE MEDIA)): active; positive
